Measured values reported in patent US12178809B2, “Pyridinyl sulfonamide derivatives, pharmaceutical compositions and uses thereof” (Boehringer Ingelheim International GmbH, priority 2018, dated 2024).
Structures can show the parent of a compound that is named as a salt. Where two headings read alike, the source gives them in different places.

Assays:
AOC2 = AOC2 (Homo sapiens (Human), UniProt O75106); test: AOC2 biochemical assay (Amplex Red)
Protocol: An aliquot of 5 μL of the compound dilution is added to a 96 well plate (flat bottom F, black, GREINER bio-one, #655900) in a DMSO concentration of 2%. […] Cells are cultured for 3 days in EMEM culture medium containing 10% FCS (#04-00-1A, Biological Industries). After washing twice with ice cold PBS, cells are lysed by mechanic homogenation and cleared supernatants are shock frozen in liquid nitrogen and stored at -80° C. […] An Aliquot of 45 μL is added to the compound dilution and incubated for 30 min at 37° C. The enzymatic reaction is started with the addition of 50 μL of Amplex® Red reaction mix (final assay concentration: 100 mM sodiumphosphate, 120 μM Amplex® Red reagent (#A22177 Molecular Probes), 1.5 U/mL Horseradish Peroxidase (#P8375 Sigma-Aldrich), 2 mM phenylethylamine (#[…] Sigma-Aldrich), 0.05% Pluronic F-127 (#P3000MP Sigma-Aldrich), pH 7.4, 37° C.). The turnover per time of the substrate is determined directly with a fluorescence reader (Ex 540 nm/Em 590 nm) like Envision 2104 Multilabel Reader (PERKIN ELMER) for 60 min.

human AOC3 enzyme = human AOC3 enzyme (Homo sapiens (Human), UniProt Q16853); test: AOC3 biochemical assay (MAO-Glo)
Source text: The MAO-Glo™ Assay (commercially available from PROMEGA, #V1402) provides a sensitive method for the measurement of monoamine oxidase (MAO) activity (Valley, M. P. et al., 2006, Anal. Biochem. 359: 238-246) from a variety of tissues, biofluids or recombinant expressed or purified enzymes. As substrate a derivate of the beetle luciferin ((4S)-4,5-dihydro-2-(6-hydroxybenzothiazolyl)-4-thiazole-carboxylic acid) is used, which is oxidized at a primary amine moiety. After a spontaneous elimination and a catalyzed esterase reaction, the turnover of the luciferine by the luciferase is recorded as a signal of AOC3 activity.
An aliquot of 3 μL of the compound dilution is added to a 384 well plate (Optiplate, PS, flat bottom, white, PERKIN ELMER, #6007290) with a final DMSO concentration of 6.6%. Recombinant CHO cells, overexpressing the human (1500 cells/well), mouse (1000 cells/well) or rat (500 cells/well) AOC3 enzyme are diluted in reaction buffer and added in a volume of 15 μL to the wells. After incubation for 20 minutes at 37° C., 2 μL of MAO substrate (dissolved in DMSO at 16 mM, adjusted to assay concentration in reaction buffer to a final assay concentration of 20 μM) is added and further incubated for 60 minutes at 37° C. The turnover of the substrate is determined by the addition of 20 μL of the detection-mix which was generated by the addition of reconstitution buffer with esterase (PROMEGA, #V1402) to the luciferine detection reagent (PROMEGA, #V1402). After an incubation period of 20 minutes, the luminescent signal is measured with Envision 2104 Multilabel Reader (PERKIN ELMER).

AOC1 = AOC1 (Homo sapiens (Human), UniProt P19801); test: AOC1 biochemical assay (Amplex Red)
Protocol: The Amplex® Red Assay (available from Thermo Fisher Scientific) provides a sensitive method for the detection of H2O2 generated during enzymatic reactions like the amine oxidation catalyzed by AOC1. The assay reagent is a colorless substrate (N-acetyl-3,7-dihydroxyphenoxazine) that reacts in a 1:1 stoichiometry with hydrogen peroxide (H2O2) to produce the fluorescent dye resorufin (7-hydroxyphenoxazin-3-one, excitation/emission maxima=570/585 nm).
An aliquot of 3 μL of the compound dilution is added to a 384 well plate (Optiplate, PS, flat bottom F, black, PERKIN ELMER, #6007270) in a DMSO concentration of 6.6%.
An AOC1 enzyme aliquot (#8297-AO-010, R&D Systems) is thawed on ice, diluted in reaction buffer and added in a volume of 7 μL to the wells to give a final assay concentration of 1 ng/well. After incubation of inhibitor and enzyme for 30 minutes at 37° C., the enzymatic reaction is started with the addition of 10 μL of Amplex® Red reaction mix (final assay concentration: 100 mM sodiumphosphate, 120 μM Amplex® Red reagent (#A22177 Molecular Probes), 1.5 U/mL Horseradish Peroxidase (#P8375 Sigma-Aldrich), 200 μM putrescine (#P7505 Sigma-Alrdich), 0.05% Pluronic F-127 (#P3000MP Sigma-Aldrich), pH 7.4, 37° C.).
After an incubation for 30 minutes at 37° C. the turnover of the substrate is determined directly (or after the addition of an excess of an amine-oxidase inhibitor) with a fluorescence reader (Ex 540 nm/Em 590 nm) like Envision 2104 Multilabel Reader (PERKIN ELMER).

[1] = comparison table, read-out: IC50 AOC2
[2] = comparison table, read-out: IC50 AOC3
[3] = comparison table, read-out: IC50 AOC1

Chain of AOC1 (P19801 20-751): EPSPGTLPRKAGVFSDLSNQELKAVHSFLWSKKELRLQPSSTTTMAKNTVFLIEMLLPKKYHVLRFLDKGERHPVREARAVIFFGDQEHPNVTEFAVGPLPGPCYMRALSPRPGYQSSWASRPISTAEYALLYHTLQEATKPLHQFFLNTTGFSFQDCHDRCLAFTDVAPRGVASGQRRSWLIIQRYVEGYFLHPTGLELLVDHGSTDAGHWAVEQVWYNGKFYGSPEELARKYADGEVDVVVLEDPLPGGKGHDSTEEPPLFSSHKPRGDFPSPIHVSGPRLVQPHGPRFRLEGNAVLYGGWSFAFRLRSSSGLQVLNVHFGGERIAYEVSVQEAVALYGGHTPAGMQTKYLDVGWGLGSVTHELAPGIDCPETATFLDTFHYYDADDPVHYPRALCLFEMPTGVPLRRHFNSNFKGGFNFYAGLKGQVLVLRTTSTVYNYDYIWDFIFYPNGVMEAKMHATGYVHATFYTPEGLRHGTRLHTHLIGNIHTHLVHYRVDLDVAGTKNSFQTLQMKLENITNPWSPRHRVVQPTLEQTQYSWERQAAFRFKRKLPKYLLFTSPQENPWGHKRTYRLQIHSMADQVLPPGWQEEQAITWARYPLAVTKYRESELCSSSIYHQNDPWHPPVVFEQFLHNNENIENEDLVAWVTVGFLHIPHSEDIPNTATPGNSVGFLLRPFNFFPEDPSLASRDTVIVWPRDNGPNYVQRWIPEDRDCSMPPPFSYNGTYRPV
Chain of human AOC3 enzyme (Q16853 whole entry): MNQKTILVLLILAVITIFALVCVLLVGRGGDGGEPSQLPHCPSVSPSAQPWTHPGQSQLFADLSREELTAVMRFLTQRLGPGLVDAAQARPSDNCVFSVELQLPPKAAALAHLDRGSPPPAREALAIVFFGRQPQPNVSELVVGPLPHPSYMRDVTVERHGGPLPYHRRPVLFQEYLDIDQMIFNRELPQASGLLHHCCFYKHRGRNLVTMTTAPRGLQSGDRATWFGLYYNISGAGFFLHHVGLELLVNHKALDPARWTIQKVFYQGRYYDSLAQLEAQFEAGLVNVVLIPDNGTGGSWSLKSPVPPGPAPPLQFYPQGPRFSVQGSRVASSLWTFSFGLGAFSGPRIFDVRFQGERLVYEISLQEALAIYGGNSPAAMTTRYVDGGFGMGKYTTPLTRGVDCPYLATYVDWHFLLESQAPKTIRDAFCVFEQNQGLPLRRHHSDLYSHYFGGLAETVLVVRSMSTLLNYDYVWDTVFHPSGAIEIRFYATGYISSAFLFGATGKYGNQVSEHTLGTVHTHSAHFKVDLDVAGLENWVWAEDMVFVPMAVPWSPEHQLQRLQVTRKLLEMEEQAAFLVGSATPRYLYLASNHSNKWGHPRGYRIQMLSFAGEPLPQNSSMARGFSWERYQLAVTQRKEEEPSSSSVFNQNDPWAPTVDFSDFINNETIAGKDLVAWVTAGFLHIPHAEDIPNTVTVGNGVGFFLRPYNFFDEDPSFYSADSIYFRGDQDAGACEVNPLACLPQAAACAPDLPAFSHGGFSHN
Chain of AOC2 (O75106 whole entry): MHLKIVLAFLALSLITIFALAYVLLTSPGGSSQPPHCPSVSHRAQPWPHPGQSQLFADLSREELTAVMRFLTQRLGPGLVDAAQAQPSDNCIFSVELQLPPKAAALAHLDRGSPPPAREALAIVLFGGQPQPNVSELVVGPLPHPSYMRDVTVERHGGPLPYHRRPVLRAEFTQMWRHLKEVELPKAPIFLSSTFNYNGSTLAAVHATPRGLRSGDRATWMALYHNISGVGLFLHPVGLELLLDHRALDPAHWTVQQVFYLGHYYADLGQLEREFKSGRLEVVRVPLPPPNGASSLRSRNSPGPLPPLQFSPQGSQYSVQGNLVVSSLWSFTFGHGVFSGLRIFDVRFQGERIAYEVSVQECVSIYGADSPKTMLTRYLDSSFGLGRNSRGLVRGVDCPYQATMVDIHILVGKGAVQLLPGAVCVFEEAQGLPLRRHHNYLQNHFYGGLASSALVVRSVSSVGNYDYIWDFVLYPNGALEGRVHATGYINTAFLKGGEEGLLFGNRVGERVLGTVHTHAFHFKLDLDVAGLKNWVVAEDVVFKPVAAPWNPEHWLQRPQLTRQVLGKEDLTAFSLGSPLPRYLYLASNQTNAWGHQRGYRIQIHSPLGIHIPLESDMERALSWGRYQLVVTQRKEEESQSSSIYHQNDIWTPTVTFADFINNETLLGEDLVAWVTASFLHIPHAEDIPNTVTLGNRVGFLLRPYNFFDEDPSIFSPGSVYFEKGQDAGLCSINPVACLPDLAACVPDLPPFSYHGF

IC50 (AOC2; read-out: AOC2 IC50) | IC50 (human AOC3 enzyme; read-out: AOC3 IC50) | IC50 (AOC1; read-out: AOC1 IC50) | SMILES | also measured
 |  |  | CN(C)S(=O)(=O)c1ccc(OC/C(=C/F)CN)cc1 [Compound 14 of WO 2013/163675, reference compound] | fold less active against AOC2 as compared to AOC3 (ratio IC50 AOC2/IC50 AOC3) (AOC2): ca. 145 fold; IC50 (AOC2; [1]): 1160 nM; IC50 (AOC2; read-out: IC50 AOC2): 1160 nM; IC50 (human AOC3 enzyme; [2]): 8 nM; IC50 (AOC1; [3]): > 50 µM
 |  |  | NC/C(=C\F)COc1cnc(N2CCC(O)CC2)nc1 [Example 2 of WO 2018/027892, reference compound] | IC50 (human AOC3 enzyme; [2]): 20 nM; IC50 (AOC1; [3]): 0.269 µM
1140 nM | 33 nM | > 50 µM | CCC(=O)NC1CCN(S(=O)(=O)c2ccc(OC/C(=C/F)CN)nc2)CC1 [Example 02] | 
1020 nM | 25 nM | 23.6 µM | CNC(=O)[C@@]12C[C@@H]1CN(S(=O)(=O)c1ccc(OC/C(=C/F)CN)nc1)C2 [Example 03] | 
806 nM | 49 nM | > 50 µM | NC/C(=C\F)COc1ccc(S(=O)(=O)N2CCC(N3CCNC3=O)CC2)cn1 [Example 04] | 
 |  |  | CO[C@H]1CCN(c2ncc(OC/C(=C/F)CN)cn2)C1 [Example 5 of WO 2018/027892, reference compound] | IC50 (AOC2; [1]): 497 nM; IC50 (human AOC3 enzyme; [2]): 13 nM; IC50 (AOC1; [3]): 0.268 µM
 |  |  | NC/C(=C\F)COc1cnc(N2CC[C@H](O)C2)nc1 [Example 6 of WO 2018/027892, reference compound] | IC50 (AOC2; [1]): 1120 nM; IC50 (human AOC3 enzyme; [2]): 59 nM; IC50 (AOC1; [3]): 1.17 µM
593 nM |  | > 50 µM | CC(=O)N[C@H]1CCCN(S(=O)(=O)c2ccc(OC/C(=C/F)CN)nc2)C1 [Example 06] | 
531 nM | 37 nM | > 50 µM | CNC(=O)NC1CCN(S(=O)(=O)c2ccc(OC/C(=C/F)CN)nc2)CC1 [Example 07] | 
524 nM | 37 nM | > 50 µM | CN(C(N)=O)C1CCN(S(=O)(=O)c2ccc(OC/C(=C/F)CN)nc2)CC1 [Example 08] | 
489 nM | 39 nM | 6.17 µM | NC/C(=C\F)COc1ccc(S(=O)(=O)N2CCC(C(=O)N3CCOCC3)(c3ccccc3)CC2)cn1 [Example 09] | 
407 nM | 52 nM | > 50 µM | NC/C(=C\F)COc1ccc(S(=O)(=O)N2CCC(C(=O)N3CCOCC3)CC2)cn1 [Example 10] | 
401 nM | 12 nM | > 50 µM | CCNC(=O)C1CCN(S(=O)(=O)c2ccc(OC/C(=C/F)CN)nc2)CC1 [Example 11] | 
385 nM | 38 nM | > 50 µM | CN(C)C(=O)C1CCN(S(=O)(=O)c2ccc(OC/C(=C/F)CN)nc2)CC1 [Example 12] | 
358 nM | 43 nM | > 50 µM | NC/C(=C\F)COc1ccc(S(=O)(=O)N2CCC(C(=O)N3CCC3)CC2)cn1 [Example 13] | 
306 nM | 41 nM | 14.3 µM | CC(=O)N1CC(C2CCN(S(=O)(=O)c3ccc(OC/C(=C/F)CN)nc3)CC2)C1 [Example 14] | 
263 nM | 38 nM | > 50 µM | CC(=O)NCC1CCN(S(=O)(=O)c2ccc(OC/C(=C/F)CN)nc2)CC1 [Example 15] | 
262 nM | 30 nM | > 50 µM | CN(C)C(=O)CC1CCN(S(=O)(=O)c2ccc(OC/C(=C/F)CN)nc2)CC1 [Example 16] | 
251 nM | 8 nM | > 50 µM | NC/C(=C\F)COc1ccc(S(=O)(=O)N2CCC(C(N)=O)CC2)cn1 [Example 17] | 

IC50 (AOC2; read-out: AOC2 IC50) | IC50 (human AOC3 enzyme; read-out: AOC3 IC50) | IC50 (AOC1; read-out: AOC1 IC50) | SMILES | also measured
244 nM | 37 nM | > 50 µM | CC1(O)CN(S(=O)(=O)c2ccc(OC/C(=C/F)CN)nc2)C1 [Example 18] | 
214 nM | 32 nM | > 50 µM | CCNC(=O)CC1CCN(S(=O)(=O)c2ccc(OC/C(=C/F)CN)nc2)CC1 [Example 19] | 
192 nM | 54 nM | > 50 µM | CC(=O)N(C)C1CCN(S(=O)(=O)c2ccc(OC/C(=C/F)CN)nc2)CC1 [Example 20] | 
190 nM | 20 nM | > 50 µM | CN1CCN(C2CCN(S(=O)(=O)c3ccc(OC/C(=C/F)CN)nc3)CC2)C1=O [Example 21] | 
188 nM | 11 nM | > 50 µM | COC(=O)CC1CCN(S(=O)(=O)c2ccc(OC/C(=C/F)CN)nc2)CC1 [Example 22] | 
180 nM | 62 nM | > 50 µM | CC(=O)NC1CCN(S(=O)(=O)c2ccc(OC/C(=C/F)CN)nc2)C1 (stereo not drawn) [Example 23] | 
165 nM |  | > 50 µM | CNC(=O)[C@@H]1CCN(S(=O)(=O)c2ccc(OC/C(=C/F)CN)nc2)C1 [Example 24] | 
164 nM | 36 nM | 26.7 µM | NC/C(=C\F)COc1ccc(S(=O)(=O)N2CC[C@H](C(=O)N3CCOCC3)C2)cn1 [Example 25] | 
164 nM | 45 nM | > 50 µM | CC(C)(O)C1CN(S(=O)(=O)c2ccc(OC/C(=C/F)CN)nc2)C1 [Example 26] | 
160 nM | 51 nM | > 50 µM | CN(C)C(=O)[C@H]1CCN(S(=O)(=O)c2ccc(OC/C(=C/F)CN)nc2)C1 [Example 27] | 
151 nM |  | > 50 µM | CNC(=O)[C@H]1CCN(S(=O)(=O)c2ccc(OC/C(=C/F)CN)nc2)C1 [Example 29] | 
 | 18 nM | 27.2 µM | COCCN(C)C(=O)[C@H]1[C@@H]2CN(S(=O)(=O)c3ccc(OC/C(=C/F)CN)nc3)C[C@@H]21 [Example 59] | 
 | 18 nM | > 50 µM | NC/C(=C\F)COc1ccc(S(=O)(=O)N2CCC(C(=O)NCCO)CC2)cn1 [Example 62] | 
 | 19 nM | > 50 µM | NC/C(=C\F)COc1ccc(S(=O)(=O)N2CCC(C(=O)NC3CC3)CC2)cn1 [Example 63] | 
 | 17 nM | > 50 µM | NC/C(=C\F)COc1ccc(S(=O)(=O)N2CCC(C(=O)NCCF)CC2)cn1 [Example 64] | 
 | 11 nM | > 50 µM | CC(F)(F)CNC(=O)C1CCN(S(=O)(=O)c2ccc(OC/C(=C/F)CN)nc2)CC1 [Example 65] | 
 | 23 nM | 31 µM | COCCNC(=O)[C@H]1[C@@H]2CN(S(=O)(=O)c3ccc(OC/C(=C/F)CN)nc3)C[C@@H]21 [Example 66] | 
 |  |  | NC/C(=C\F)COc1ccc(S(=O)(=O)N2CC[C@H](O)C2)cc1 [Reference compound B, reference compound] | IC50 (human AOC3 enzyme; [2]): 27 nM; IC50 (AOC1; comparison table, unit μM, read-out: IC50 AOC1): > 50 µM

SMILES | IC50 (AOC2; read-out: AOC2 IC50) | IC50 (human AOC3 enzyme; read-out: AOC3 IC50) | IC50 (AOC1; read-out: AOC1 IC50) | also measured
CNC(=O)[C@H]1[C@@H]2CN(S(=O)(=O)c3ccc(OC/C(=C/F)CN)nc3)C[C@@H]21 [Example 01, trans-3-[6-((E)-2-Aminomethyl-3-fluoro-allyloxy)-pyridine-3-sulfonyl]-3-aza-bicyclo[3.1.0]hexane-6-carboxylic acid methylamide trifluoroacetate] | 162 nM | 12 nM | 43.4 µM | 
